Assay [1] relates to Abeta 1-42 produced and secreted by human neuroblastoma SKNBE2 cells expressing wild type hAPP695. As to the kind of experiment: Cellular αLisa assay in SKNBE2 cells, Abeta 1-42. In kind it is cell-based. To be noted: 18 hours incubation, read-out: Cellular αLisa assay in SKNBE2 cells Abeta 42 pIC50 (converted). The method, then:
In two αLisa assays the levels of Abeta total and Abeta 1-42 produced and secreted into the medium of human neuroblastoma SKNBE2 cells are quantified. The assay is based on the human neuroblastoma SKNBE2 expressing the wild type Amyloid Precursor Protein (hAPP695). The compounds are diluted and added to these cells, incubated for 18 hours and then measurements of Abeta 1-42 and Abeta total are taken. Abeta total and Abeta 1-42 are measured by sandwich αLisa. αLisa is a sandwich assay using biotinylated antibody AbN/25 attached to streptavidin coated beads and antibody Ab4G8 or cAb42/26 conjugated acceptor beads for the detection of Abeta total and Abeta 1-42 respectively. In the presence of Abeta total or Abeta 1-42, the beads come into close proximity. The excitation of the donor beads provokes the release of singlet oxygen molecules that trigger a cascade of energy transfer in the acceptor beads, resulting in light emission. Light emission is measured after 1 hour incubation (excitation at […] and emission at 615 nm).
(§1) A best-fit curve is fitted by a minimum sum of squares method to the plot of % Controlmin versus compound concentration. From this an IC50 value (inhibitory concentration causing 50% inhibition of activity) can be obtained.

Assay [2] concerns the target recombinant BACE1 protein (Homo sapiens, UniProt P56817). As to the kind of experiment: BACE1 biochemical FRET based assay. To be noted: 450 min at room temperature, 20 μM substrate, pH 5.0.
Excerpt: (§2) This assay is a Fluorescence Resonance Energy Transfer Assay (FRET) based assay. The substrate for this assay is an APP derived 13 amino acids peptide that contains the ‘Swedish’ Lys-Met/Asn-Leu mutation of the amyloid precursor protein (APP) beta-secretase cleavage site. This substrate also contains two fluorophores: (7-methoxycoumarin-4-yl) acetic acid (Mca) is a fluorescent donor with excitation wavelength at 320 nm and emission at 405 nm and 2,4-Dinitrophenyl (Dnp) is a proprietary quencher acceptor. […] Upon cleavage by BACE1, the fluorophore Mca is separated from the quenching group Dnp, restoring the full fluorescence yield of the donor. The increase in fluorescence is linearly related to the rate of proteolysis.
Briefly in a 384-well format recombinant BACE1 protein in a final concentration of 0.04 μg/ml is incubated for 450 minutes at room temperature with 20 μM substrate in incubation buffer (50 mM Citrate buffer pH 5.0, 0.05% PEG) in the presence of compound or DMSO. Next the amount of proteolysis is directly measured by fluorescence measurement (excitation at 320 nm and emission at 405 nm) at different incubation times (0, 30, 60, 90, 120 and 450 min). For every experiment a time curve (every 30 min between 0 min and 120 min) is used to determine the time where we find the lowest basal signal of the high control. The signal at this time (Tx) is used to subtract from the signal at 450 min. Results are expressed in RFU, as difference between T450 and Tx.
as §1

The target of assay [3] is T1, recombinant BACE2 protein (Homo sapiens, UniProt Q9Y5Z0).
T1 sequence (Q9Y5Z0 63-518): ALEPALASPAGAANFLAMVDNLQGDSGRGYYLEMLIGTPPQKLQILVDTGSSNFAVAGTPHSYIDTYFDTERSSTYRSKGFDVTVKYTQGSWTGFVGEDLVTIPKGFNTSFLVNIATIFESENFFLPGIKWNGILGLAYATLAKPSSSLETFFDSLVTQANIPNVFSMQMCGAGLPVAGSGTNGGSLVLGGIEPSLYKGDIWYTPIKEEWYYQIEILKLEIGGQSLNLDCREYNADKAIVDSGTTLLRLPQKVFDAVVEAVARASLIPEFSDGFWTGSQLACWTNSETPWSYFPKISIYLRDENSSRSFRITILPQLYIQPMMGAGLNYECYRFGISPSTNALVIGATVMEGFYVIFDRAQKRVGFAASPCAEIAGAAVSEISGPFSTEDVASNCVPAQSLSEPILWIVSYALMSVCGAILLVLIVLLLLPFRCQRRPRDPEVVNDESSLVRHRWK
As to the kind of experiment: BACE2 biochemical FRET based assay. To be noted: 450 min at room temperature, 10 μM substrate, pH 5.0.
Excerpt: as §2, with “assay” for “assay is an APP derived 13 amino acids peptide that”, “the beta-secretase,” for “BACE1,”
Briefly in a 384-well format recombinant BACE2 protein in a final concentration of 0.4 μg/ml is incubated for 450 minutes at room temperature with 10 μM substrate in incubation buffer (50 mM Citrate buffer pH 5.0, 0.05% PEG, no DMSO) in the absence or presence of compound. Next the amount of proteolysis is directly measured by fluorescence measurement at T=0 and T=450 (excitation at 320 nm and emission at 405 nm). Results are expressed in RFU (Relative Fluorescence Units), as difference between T450 and TO.
as §1

The target of assay [4] is β-secretase I (BACE1) (Homo sapiens, UniProt P56817). As to the kind of experiment: Automated (CyclOps) biochemical assay BACE1. To be noted: 37 °C, 60 min, pH 5.0; read-out: Automated assay BACE1 pIC50 (converted). The method, then: (§3) Unless otherwise indicated all biochemicals were purchased from Sigma-Aldrich Chemical Company, Poole, Dorset, U.K. and non-aqueous solvents, of analytical or higher grade, were purchased from ThermoFisher Scientific, Loughborough, U.K. MilliQ water (Elix 5 & MilliQ Gradient; Merck Millipore) was used as the base aqueous solvent to make up the biological buffers. Base assay buffer was prepared by adding a 50 mM solution of citric acid (1.00244; Merck Biosciences) to stirring solution of 50 mM trisodium citrate (1.06448; Merck Biosciences) until a final pH of 5.0 was achieved. […] All assays were routinely carried out in 384-well assay plates (Costar 4514; Corning Life Sciences) and incubated at 37±1° C. for 60 min. prior to reading the endpoint fluorescence intensity. The (7-methoxyl coumarin-4-yl)acetic acid based substrate 0-secretase substrate VI (M2465; Bachem) was prepared as a 1 mM stock in 100% DMSO (D/4121/PB08; ThermoFisher). Assay buffer was prepared by adding DMSO to base buffer to a final concentration of 1% (vol./vol.). β-secretase I (18.64 μM; “BACE1”) and β-secretase II (4.65 μM; “BACE2”) were obtained from Janssen Pharmaceutica, Beerse, Belgium and were stored as frozen aliquots (˜20 μl) and thawed as required.
Chain of β-secretase I (BACE1) (P56817 46-501): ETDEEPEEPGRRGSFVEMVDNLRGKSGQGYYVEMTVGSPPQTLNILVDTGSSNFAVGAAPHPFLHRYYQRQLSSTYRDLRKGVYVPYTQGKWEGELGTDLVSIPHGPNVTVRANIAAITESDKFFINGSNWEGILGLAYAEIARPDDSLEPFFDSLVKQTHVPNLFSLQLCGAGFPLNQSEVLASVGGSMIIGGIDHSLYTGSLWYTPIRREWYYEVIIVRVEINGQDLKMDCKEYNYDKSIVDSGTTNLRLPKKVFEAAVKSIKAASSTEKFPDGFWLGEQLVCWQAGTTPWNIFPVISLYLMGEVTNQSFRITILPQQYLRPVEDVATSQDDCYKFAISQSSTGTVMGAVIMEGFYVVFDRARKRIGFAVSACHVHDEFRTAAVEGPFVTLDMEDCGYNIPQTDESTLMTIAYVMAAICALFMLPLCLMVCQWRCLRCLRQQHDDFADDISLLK
(§4) The CyclOps bioassay module consisted of a fraction collection station, a reagent station, liquid handling robotics, plate store and an integrated plate reader (SpectraMAX Paradigm, TUNE cartridge, SoftMax Pro v 6.3; Molecular Devices). The fraction collection station composed of a 384 well collection plate (P-384-240SQ-C; Axygen, Union City, Calif., USA) mounted on a H-portal carriage (Festo AG & Co. KG, Esslingen, Germany), a syringe drive and a two-way six port injection valve fitted with a 200 μl loop (VICI AG International, Schenkon Switzerland). The output of the injection valve was addressable to all the positions of a 384 well collection plate. The reagent station consisted of hydraulically cooled (10-12° C.) aluminium segments; each manufactured to house a SBS microtiter plate footprint. Independent addressable reagent stations were housed within these sections. Where required, custom aluminium housings were used to accommodate standard laboratory plastic ware (e.g. Eppendorf tubes, Falcon tubes, etc.). As and when required the reagent reservoirs were covered and the lids contained holes through which the Teflon-coated probe could access solutions. The reagents present on the liquid handling system were: • Probe wash solution (˜150 ml; 33.3:33.3:33.3 water:propan-2-ol (P/7508/17; ThermoFisher):methanol (M/4058/17; ThermoFisher) contained in a covered reagent reservoir (390007; Porvair Sciences Ltd., Leatherhead, UK). • Assay buffer solution • HPLC grade water • 40 nM BACE1 diluted in base buffer contained in a 5 ml Eppendorf tube (0030 119.401; Eppendorf) • 400 nM BACE2 diluted in 25 mM tris (648311; Merck Biosciences, Nottingham, U.K.), pH 7.5 containing 100 mM sodium chloride and 20% glycerol (16374; USB Corp., Cleveland, Ohio, USA) contained in a 1.5 ml Eppendorf tube (0030 000.919; Eppendorf) • 1 mM substrate in 100% DMSO contained in a 1.5 ml Eppendorf tube (maintained at ambient temperature) • Two empty 1.5 ml Eppendorf tubes
(§5) The liquid handling system composed of a LISSY system (Zinsser Analytik GmbH, Frankfurt, Germany) equipped with gripper arm and single teflon-coated stainless steel probe. […]

The target of assay [5] is T2, β-secretase II (BACE2) (Homo sapiens, UniProt Q9Y5Z0).
T2 sequence (Q9Y5Z0 63-518): T1 sequence (Q9Y5Z0 63-518)
As to the kind of experiment: Automated (CyclOps) biochemical assay BACE2. To be noted: 37 °C, 60 min, pH 5.0; read-out: Automated assay BACE2 pIC50 (converted). The procedure:
as §3, §4, §5

Chain of recombinant BACE1 protein (P56817 46-501): as above

With `COc1ncc(Cc2c(C)noc2C)c2c1C[C@]1(c3ccc(F)cc3F)N=C(N)SC[C@@H]1C2` [Compound 2], the IC50 in assay [1] was 0.00263 µM. Besides, the “Biochemical FRET based assay pIC50” value in assay [2] came to 8.23; in assay [3], 7.36.

Regarding `COc1cc(Cc2cnc(OC)c3c2C[C@H]2CSC(N)=N[C@@]2(c2ccc(F)cc2F)C3)cc(OC)c1` [Compound 8], the IC50 in assay [4] was 0.195 µM; in assay [5], 0.219 µM.

On to `COc1ncc(Cc2cccc(Cl)c2)c2c1C[C@]1(c3ccc(F)cc3F)N=C(N)SC[C@@H]1C2` [Compound 7], for which the IC50 was 0.0617 µM in assay [4] and 0.11 µM in assay [5].

As to `COc1ncc(Cc2ccccc2C)c2c1C[C@]1(c3ccc(F)cc3F)N=C(N)SC[C@@H]1C2` [Compound 3], the IC50 was 0.0229 µM in assay [4] and 0.355 µM in assay [5].

In the case of `COc1ncc(CC2CCOCC2)c2c1C[C@]1(c3ccc(F)cc3F)N=C(N)SC[C@@H]1C2` [Compound 1], the IC50 in assay [1] was 0.000759 µM. Besides, the “Biochemical FRET based assay pIC50” value in assay [2] amounted to 8.52; in assay [3] it was 8.18.

Take `COc1ncc(Cc2c(C)cccc2C)c2c1C[C@]1(c3ccc(F)cc3F)N=C(N)SC[C@@H]1C2` [Compound 9]: the IC50 in assay [1] was 0.0427 µM. The “Biochemical FRET based assay pIC50” value in assay [2] was found to be 7.99; in assay [3], 6.56.

Consider `COc1ccc(Cc2cnc(OC)c3c2C[C@H]2CSC(N)=N[C@@]2(c2ccc(F)cc2F)C3)cc1` [Compound 5], for which the IC50 in assay [4] was 0.049 µM; in assay [1], 0.0676 µM; in assay [5], 0.204 µM. The “Biochemical FRET based assay pIC50” value in assay [2] worked out at 7.64; in assay [3] it was 7.1.

Take `COc1cccc(Cc2cnc(OC)c3c2C[C@H]2CSC(N)=N[C@@]2(c2ccc(F)cc2F)C3)c1` [Compound 6]: the IC50 in assay [4] is 0.0759 µM; in assay [5], 0.191 µM.

Source of the values: US20210284659A1, “INHIBITORS OF BETA SECRETASE” (Janssen Pharmaceutica NV, priority 2017, published 2021).
